The text below walks through data of US12012386B2, “Olaparib oxalic acid cocrystals and their pharmaceutical use” (NUFORMIX TECHNOLOGIES LIMITED, priority 2020, dated 2024).

As usually defined, the aqueous solubility is how much of the substance goes into solution per volume.

For series [1] the following is noted: EMA/CHMP/789139/2014; low solubility and low permeability; cited from earlier work.
The nature of series [2]: Dissolution study in simulated intestinal fluid (FaSSIF V2). It is filed as physicochemical. The settings on record: from four minutes onwards; 50 ml FaSSIF V2, pH 6.5, 37° C.; FIG. 12. The text has this:
For BCS class IV drugs, such as olaparib, where both solubility and permeability are limited, the rate of dissolution of the drug form used can be the controlling factor in the overall absorption and thus the bioavailability of a drug. This becomes even more influential as the dose of a drug increases. Given the high dose of olaparib needed in its current marketed indications it is likely that a high dose may be needed for use in alternative conditions, thus finding a crystalline form of olaparib that has a high dissolution rate is important. A study was, therefore, carried out to examine the rate of dissolution of the 2:3 olaparib oxalic acid cocrystal, 1:1 olaparib oxalic acid cocrystal, and 2:1 olaparib oxalic acid compared with the 1:1 olaparib urea cocrystal of CN 105753789 and the pure crystalline olaparib form A. The dissolution study was carried out using 50 ml simulated intestinal fluid (FaSSIF V2) at pH 6.5 (37° C.) using a quantity of each olaparib form equivalent to 25 mg olaparib. […] Detection and quantification of olaparib was performed by in-situ UV-spectroscopy using a fibre-optic probe, allowing instantaneous data collection from the point of sample introduction. UV absorption data was converted to mg/ml (±0.2 mg/ml) using a previously determined pH dependent molar extinction coefficients to quantitate the amount of dissolved drug.

A short description of series [3]: Gravimetric Vapour Sorption (GVS) analysis. It is filed as physicochemical. Particulars: for polymorphic form conversion or hydrate formation under raised relative humidity levels: GVS; for moisture reversibly adsorbed (GVS): across the 0-90% relative humidity range at 25° C. under nitrogen; for XRPD analysis post GVS analysis: at both 0% RH and 90% RH. As for the experimental part: Gravimetric Vapor Isotherm (GVS) Analysis: Sorption isotherms were obtained using a Hiden Isochema moisture sorption analyser (model IGAsorp), controlled by IGAsorp Systems Software V6.50.48. The sample was maintained at a constant temperature (25° C.) by the instrument controls. The humidity was controlled by mixing streams of dry and wet nitrogen, with a total flow of 250 ml·min^−1. The instrument was verified for relative humidity content by measuring three calibrated Rotronic salt solutions (10-50-88%). The weight change of the sample was monitored as a function of humidity by a microbalance (accuracy +/−0.005 mg). A defined amount of sample was placed in a tared mesh stainless steel basket under ambient conditions. The sample was held at 50% RH for ˜60 minutes and then the initial desorption cycle was initiated. A full experimental cycle typically consisted of three scans (desorption, sorption and desorption) at a constant temperature (25° C.) and 10% RH intervals over a 0-90% range (60 minutes for each humidity level). Data analysis was performed in Microsoft Excel. […] XRPD analysis at both 0% RH and 90% RH post GVS analysis confirmed that the cocrystal was unchanged. […]

A short description of series [4]: Solid-state stability study, accelerated conditions (40° C./75% RH, 4 months). It is filed as physicochemical. The settings on record: for stability to polymorph conversion or hydrate formation on long storage (summary of Tables 4 and 5): 4 months accelerated conditions and 6 months ambient conditions; for Appearance / XRPD analysis: 40° C./75% RH - 4 months, sealed container. As for the experimental part:
A study was carried out to examine the physical stability of the olaparib oxalic acid cocrystals with respect to solid form conversion or signs of decomposition over time under both ambient and accelerated conditions. 50 mg each of the 2:3 olaparib oxalic acid cocrystal, 1:1 olaparib oxalic acid cocrystal, and 2:1 olaparib oxalic acid cocrystal were separately placed in a sealed container at 40° C. and 75% relative humidity and stored under these conditions for 4 months. After this time, all samples remained as white solids with no signs of deliquescence.

A short description of series [5]: Solid-state stability study, ambient conditions (6 months). It is filed as physicochemical. Particulars: clear glass vial. As for the experimental part:
A second stability study was carried out where 50 mg each of the 2:3 olaparib oxalic acid cocrystal, 1:1 olaparib oxalic acid cocrystal, and 2:1 olaparib oxalic acid cocrystal were separately placed in a clear glass vial which was then stored under ambient conditions for 6 months. After this time, all the cocrystals remained as white solids with no signs of colour change.

The conditions of series [6]: pH independent; cited from earlier work.

Molecules are shown by their SMILES. ≈ marks a conversion by molar mass, not a printed value. Entries after “also recorded” stand apart in the source; their conditions may differ.

As to `O=C(c1cc(Cc2n[nH]c(=O)c3ccccc23)ccc1F)N1CCN(C(=O)C2CC2)CC1` [olaparib, 4-[(3-{[4-(cyclopropylcarbonyl)piperazin-1-yl]carbonyl}-4-fluorophenyl)methyl]phthalazin-1(2H)-one], the BCS class entry in series [1] is given as “class IV; also recorded: class 4”.
As for `NC(N)=O.O=C(c1cc(Cc2n[nH]c(=O)c3ccccc23)ccc1F)N1CCN(C(=O)C2CC2)CC1` [1:1 olaparib urea cocrystal], the “level of dissolution compared with pure crystalline olaparib form A” value in series [2] is on record as “only achieves the same level of dissolution as pure crystalline olaparib form A”.
As for `O=C(O)C(=O)O.O=C(c1cc(Cc2n[nH]c(=O)c3ccccc23)ccc1F)N1CCN(C(=O)C2CC2)CC1.O=C(c1cc(Cc2n[nH]c(=O)c3ccccc23)ccc1F)N1CCN(C(=O)C2CC2)CC1` [2:1 olaparib oxalic acid cocrystal], the “polymorphic form conversion or hydrate formation under raised relative humidity levels” value in series [3] (0-90% RH, 25° C.) is “does not show any polymorphic form conversion or hydrate formation”. In series [3], the “moisture reversibly adsorbed (GVS)” value is recorded as 0.59 % w/w and the “XRPD analysis post GVS analysis” value was “unchanged”. Further, in series [4], the “stability to polymorph conversion or hydrate formation on long storage (summary of Tables 4 and 5)” value (shortened to “stability”) is “stable to polymorph conversion or hydrate formation”; the Appearance result is reported as “No change”; the XRPD analysis result is “No change”. Moreover, in series [5], the Appearance entry is listed as “No change” and the XRPD analysis result was “No change”.
Regarding `O=C(c1cc(Cc2n[nH]c(=O)c3ccccc23)ccc1F)N1CCN(C(=O)C2CC2)CC1` [polymorph A], the aqueous solubility in series [6] was ~100 µg/mL (≈ 230 µM).
In the case of `O=C(O)C(=O)O.O=C(c1cc(Cc2n[nH]c(=O)c3ccccc23)ccc1F)N1CCN(C(=O)C2CC2)CC1` [1:1 olaparib oxalic acid cocrystal], in series [4], the “stability” value is recorded as “stable to polymorph conversion or hydrate formation”; the Appearance entry is on record as “No change”; the XRPD analysis entry is on record as “No change”. For the same compound, in series [5], the Appearance entry is “No change” and the XRPD analysis result is “No change”.
With `O=C(O)C(=O)O.O=C(O)C(=O)O.O=C(O)C(=O)O.O=C(c1cc(Cc2n[nH]c(=O)c3ccccc23)ccc1F)N1CCN(C(=O)C2CC2)CC1.O=C(c1cc(Cc2n[nH]c(=O)c3ccccc23)ccc1F)N1CCN(C(=O)C2CC2)CC1` [2:3 olaparib oxalic acid cocrystal], in series [3] (0-90% RH, 25° C.), the hygroscopicity entry is listed as “not hygroscopic” and the “polymorphic form conversion or hydrate formation under raised relative humidity levels” value was “does not show any polymorphic form conversion or hydrate formation”. In addition, in series [3], the “moisture reversibly adsorbed (GVS)” value is listed as 0.23 % w/w and the “XRPD analysis post GVS analysis” value is recorded as “unchanged”. Further, in series [4], the “stability” value is “stable to polymorph conversion or hydrate formation”; the Appearance entry is “No change”; the XRPD analysis entry is reported as “No change”.
